Laboratory results published in patent US8309558B2, “Compounds for the treatment of hepatitis C” (Bristol-Myers Squibb Company, priority 2008, dated 2012).
Like-named read-outs stand apart in the source and are kept apart here.

Experiments:
[1] = molecular target: T1, HCV NS5B RdRp genotype 1b (Hepatitis C virus genotype 1b, UniProt Q9WMX2); test: Standard HCV NS5B RdRp enzyme assay; type: biochemical; settings: HCV NS5B RdRp genotype 1b, read-out: IC50
T1 construct: The protein was expressed with an 18 amino acid C-terminal truncation to enhance the solubility; made in house; host or cells: E. coli BL21(DE3), pET21a vector
In short: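 Radiometric SPA measuring 3H-UMP incorporation on polyA/biotin-oligo-dT12 (6 nM/180 nM), 0.29 μM total UTP. Enzyme: NS5B 1b lacking last 18 residues, 28 nM final, 30° C for 60 min in 20 mM Hepes pH 7.5, 2.5 mM MgCl2, 2% DMSO. IC50 from seven-point curves.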

HCV replicon cells = test: HCV replicon FRET / luciferase assay (96-well plates); type: cell-based; settings: Hepatitis C virus, HCV replicon, read-out: EC50
In short: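 HCV replicon cells (with or without Renilla luciferase reporter) were plated with titrated compounds at 37 °C. After Alamar blue toxicity reading, cells were lysed in reagent containing 20 μM EDANS/DABCYL NS3 protease FRET peptide and 150 mM NaCl, read kinetically at 340/490 nm, or assayed by Dual-Glo luciferase.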

T1 sequence (Q9WMX2 2420-2992): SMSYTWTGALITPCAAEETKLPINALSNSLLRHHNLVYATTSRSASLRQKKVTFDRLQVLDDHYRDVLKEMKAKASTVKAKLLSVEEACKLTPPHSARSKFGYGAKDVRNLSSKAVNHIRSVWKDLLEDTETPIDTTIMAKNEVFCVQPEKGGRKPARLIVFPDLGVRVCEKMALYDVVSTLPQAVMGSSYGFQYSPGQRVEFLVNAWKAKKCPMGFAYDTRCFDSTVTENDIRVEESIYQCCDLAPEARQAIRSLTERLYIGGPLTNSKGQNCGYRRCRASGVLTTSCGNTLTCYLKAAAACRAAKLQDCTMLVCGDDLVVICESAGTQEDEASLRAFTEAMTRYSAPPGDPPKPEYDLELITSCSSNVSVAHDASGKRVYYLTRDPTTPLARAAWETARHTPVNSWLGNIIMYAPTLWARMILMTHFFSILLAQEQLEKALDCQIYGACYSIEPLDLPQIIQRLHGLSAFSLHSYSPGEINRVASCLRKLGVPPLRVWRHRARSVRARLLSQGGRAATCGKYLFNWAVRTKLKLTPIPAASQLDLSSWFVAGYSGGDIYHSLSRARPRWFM

Row | SMILES | IC50 ([1]; Table 1a) | EC50 (HCV replicon cells; Table 1a) | IC50 ([1]; Table 1b) | EC50 (HCV replicon cells; Table 1b)
1 | CNC(=O)c1c(-c2ccc(F)cc2)oc2ccc(-c3cccc(C(=O)NC(C)C)c3)cc12 | < 0.25 µM | < 0.25 µM |  | 
2 | CNC(=O)c1c(-c2ccc(F)cc2)oc2ccc(-c3cccc(C(=O)Nc4ccccn4)c3)cc12 | < 0.25 µM | < 0.25 µM |  | 
3 | CNC(=O)c1c(-c2ccc(F)cc2)oc2ccc(-c3cccc(C(=O)NC(C)c4ccc(F)cc4)c3)cc12 (stereo not drawn) | < 0.25 µM | < 0.25 µM |  | 
4 | CNC(=O)c1c(-c2ccc(F)cc2)oc2ccc(-c3cccc(C(=O)N[C@@H](C)c4ccc(F)cc4)c3)cc12 | < 0.25 µM | < 0.25 µM |  | 
5 | CNC(=O)c1c(-c2ccc(F)cc2)oc2ccc(-c3cccc(C(=O)N[C@H](C)c4ccc(F)cc4)c3)cc12 | < 0.25 µM | < 0.25 µM |  | 
6 | CNC(=O)c1c(-c2ccc(F)cc2)oc2ccc(-c3cccc(C(=O)NC(C)(C)c4ccc(F)cc4)c3)cc12 | < 0.25 µM | < 0.25 µM |  | 
7 | CNC(=O)c1c(-c2ccc(F)cc2)oc2ccc(-c3cccc(C(=O)NC(C)(C)c4ccccc4)c3)cc12 | < 0.25 µM | < 0.25 µM |  | 
8 | CNC(=O)c1c(-c2ccc(F)cc2)oc2ccc(-c3cccc(C(=O)Nc4ccncc4)c3)cc12 | < 0.25 µM | < 0.25 µM |  | 
9 | CNC(=O)c1c(-c2ccc(F)cc2)oc2ccc(-c3cccc(C(=O)Nc4ccccc4)c3)cc12 | < 0.25 µM | < 0.25 µM |  | 
10 | CNC(=O)c1c(-c2ccc(F)cc2)oc2ccc(-c3cccc(C(=O)Nc4cccc(C#N)c4)c3)cc12 | 0.25 to 1 µM | < 0.25 µM |  | 
11 | CNC(=O)c1c(-c2ccc(F)cc2)oc2ccc(-c3cccc(C(=O)Nc4cnccn4)c3)cc12 | < 0.25 µM | < 0.25 µM |  | 
12 | CNC(=O)c1c(-c2ccc(F)cc2)oc2ccc(-c3cccc(C(=O)Nc4ccc(OC)cc4)c3)cc12 | < 0.25 µM | < 0.25 µM |  | 
13 | CNC(=O)c1c(-c2ccc(F)cc2)oc2ccc(-c3ccc(Cl)c(C(=O)NC(C)(C)c4ccccc4)c3)cc12 | < 0.25 µM | < 0.25 µM |  | 
14 | CNC(=O)c1c(-c2ccc(F)cc2)oc2ccc(-c3cccc(C(=O)NC4(c5ccccc5)CCC4)c3)cc12 | < 0.25 µM | < 0.25 µM |  | 
15 | CNC(=O)c1c(-c2ccc(F)cc2)oc2ccc(-c3cc(C(=O)NCC(C)C)ccc3OC)cc12 | < 0.25 µM | < 0.25 µM |  | 
16 | CCCOc1ccc(C(=O)NCC(C)C)cc1-c1ccc2oc(-c3ccc(F)cc3)c(C(=O)NC)c2c1 |  |  | 1 to 10 µM | 0.25 to 1 µM
17 | CNC(=O)c1c(-c2ccc(F)cc2)oc2ccc(-c3cc(C(=O)NCC(C)C)ccc3OCCC(C)C)cc12 |  |  | > 10 µM | 1 to 10 µM
18 | CNC(=O)c1c(-c2ccc(F)cc2)oc2cc(NS(C)(=O)=O)c(-c3cc(C(=O)NC4(c5ccccc5)CC4)ccc3F)cc12 |  |  | < 0.25 µM | < 0.25 µM
19 | CCC(NC(=O)c1ccc(F)c(-c2cc3c(C(=O)NC)c(-c4ccc(F)cc4)oc3cc2NS(C)(=O)=O)c1)c1ccccc1 (stereo not drawn) |  |  | < 0.25 µM | < 0.25 µM
20 | CNC(=O)c1c(-c2ccc(F)cc2)oc2ccc(-c3cccc(C(=O)NC4(c5ccccc5)CC4)c3OC)cc12 |  |  | > 10 µM | > 10 µM
21 | CNC(=O)c1c(-c2ccc(F)cc2)oc2ccc(-c3cc(C(=O)NC4(c5ccccc5Cl)CC4)ccc3Cl)cc12 |  |  | 0.25 to 1 µM | < 0.25 µM
22 | CNC(=O)c1c(-c2ccc(F)cc2)oc2cc(N(C)S(C)(=O)=O)c(-c3cccc(C(=O)NC(C)(C)c4ccccc4)c3)cc12 |  |  | < 0.25 µM | < 0.25 µM
23 | CCC(CC)(NC(=O)c1ccc(Cl)c(-c2ccc3oc(-c4ccc(F)cc4)c(C(=O)NC)c3c2)c1)c1ccccc1 |  |  | < 0.25 µM | < 0.25 µM
24 | CNC(=O)c1c(-c2ccc(F)cc2)oc2cc(N)c(-c3cccc(C(=O)NCC(C)C)c3)cc12 |  |  | < 0.25 µM | < 0.25 µM
25 | CNC(=O)c1c(-c2ccc(F)cc2)oc2ccc(-c3cc(C(=O)NCC(C)C)ccc3OCCOC)cc12 |  |  | 0.25 to 1 µM | < 0.25 µM
26 | CNC(=O)c1c(-c2ccc(F)cc2)oc2cc(N(CCO)S(C)(=O)=O)c(-c3cccc(C(=O)NC(C)(C)C)c3)cc12 |  |  | < 0.25 µM | < 0.25 µM

Row | SMILES | IC50 ([1]; Table 1a) | EC50 (HCV replicon cells; Table 1a) | IC50 ([1]; Table 1b) | EC50 (HCV replicon cells; Table 1b)
27 | CNC(=O)c1c(-c2ccc(F)cc2)oc2cc(N(CCO)S(C)(=O)=O)c(-c3cccc(C(=O)NC4(c5ccccn5)CC4)c3)cc12 |  |  | < 0.25 µM | < 0.25 µM
28 | CNC(=O)c1c(-c2ccc(F)cc2)oc2cc(N(CCO)S(C)(=O)=O)c(-c3cccc(C(=O)NC4(c5ccccc5)CC4)c3)cc12 |  |  | < 0.25 µM | < 0.25 µM
29 | CNC(=O)c1c(-c2ccc(F)cc2)oc2cc(N(CCO)S(C)(=O)=O)c(-c3cccc(C(=O)NC4(c5ccc(F)cc5)CC4)c3)cc12 |  |  | < 0.25 µM | < 0.25 µM
30 | CNC(=O)c1c(-c2ccc(F)cc2)oc2cc(N(CCO)S(C)(=O)=O)c(-c3cccc(C(=O)NC(C)(C)c4ccc(F)cc4)c3)cc12 |  |  | < 0.25 µM | < 0.25 µM
31 | CNC(=O)c1c(-c2ccc(F)cc2)oc2ccc(-c3cc(C(=O)N4CCC5(CC4)OCc4ccccc45)ccc3Cl)cc12 |  |  | 1 to 10 µM | 1 to 10 µM
32 | CNC(=O)c1c(-c2ccc(F)cc2)oc2ccc(-c3cccc(C(=O)NC4(c5ccc(Cl)cc5)CC4)c3)cc12 |  |  | < 0.25 µM | < 0.25 µM
33 | CNC(=O)c1c(-c2ccc(F)cc2)oc2ccc(-c3cccc(C(=O)NC(C)(C)c4ccc(Cl)cc4)c3)cc12 |  |  | < 0.25 µM | < 0.25 µM
34 | CNC(=O)c1c(-c2ccc(F)cc2)oc2ccc(-c3cccc(C(=O)NC(C)(C)c4ccncc4)c3)cc12 |  |  | < 0.25 µM | < 0.25 µM
35 | CNC(=O)c1c(-c2ccc(F)cc2)oc2ccc(-c3cc(C(=O)NCC(C)C)ccc3OCCc3ccc(O)cc3)cc12 |  |  | 0.25 to 1 µM | 0.25 to 1 µM
36 | CNC(=O)c1c(-c2ccc(F)cc2)oc2ccc(-c3cc(C(=O)NCC(C)C)ccc3OCCCn3cccc3)cc12 |  |  | 1 to 10 µM | 0.25 to 1 µM
37 | CNC(=O)c1c(-c2ccc(F)cc2)oc2ccc(-c3cc(C(=O)NCC(C)C)ccc3OCCc3ccc(Cl)cc3)cc12 |  |  | > 10 µM | > 10 µM
38 | CNC(=O)c1c(-c2ccc(F)cc2)oc2ccc(-c3cc(C(=O)NCC(C)C)ccc3OCC(N)=O)cc12 |  |  | < 0.25 µM | < 0.25 µM
39 | CNC(=O)c1c(-c2ccc(F)cc2)oc2ccc(-c3cc(C(=O)NCC(C)C)ccc3OCCCN3CCOCC3)cc12 |  |  | < 0.25 µM | < 0.25 µM
40 | CNC(=O)c1c(-c2ccc(F)cc2)oc2ccc(-c3cc(C(=O)NCC(C)C)ccc3OCCN3CCOCC3)cc12 |  |  | < 0.25 µM | < 0.25 µM
41 | CNC(=O)c1c(-c2ccc(F)cc2)oc2ccc(-c3cc(C(=O)NCC(C)C)ccc3OCc3ccccn3)cc12 |  |  | < 0.25 µM | < 0.25 µM
42 | CNC(=O)c1c(-c2ccc(F)cc2)oc2ccc(-c3cc(C(=O)NCC(C)C)ccc3OCCN3CCCC3)cc12 |  |  | < 0.25 µM | < 0.25 µM
43 | CNC(=O)c1c(-c2ccc(F)cc2)oc2ccc(-c3cc(C(=O)NCC(C)C)ccc3OCCN3CCCCC3)cc12 |  |  | 0.25 to 1 µM | < 0.25 µM
44 | CNC(=O)c1c(-c2ccc(F)cc2)oc2ccc(-c3cc(C(=O)NCC(C)C)ccc3OCCc3ccccn3)cc12 |  |  | 0.25 to 1 µM | < 0.25 µM
45 | CNC(=O)c1c(-c2ccc(F)cc2)oc2ccc(-c3cc(C(=O)NCC(C)C)ccc3OCc3c[nH]c(C)n3)cc12 |  |  | < 0.25 µM | < 0.25 µM
46 | CNC(=O)c1c(-c2ccc(F)cc2)oc2ccc(-c3cc(C(=O)NCC(C)C)ccc3OCc3ccc(C(F)(F)F)cn3)cc12 |  |  | > 10 µM | > 10 µM
47 | CNC(=O)c1c(-c2ccc(F)cc2)oc2ccc(-c3cc(C(=O)NCC(C)C)ccc3OCc3c[nH]cn3)cc12 |  |  | < 0.25 µM | < 0.25 µM
48 | CNC(=O)c1c(-c2ccc(F)cc2)oc2ccc(-c3cc(C(=O)NCC(C)C)ccc3OCc3cn(C)cn3)cc12 |  |  | 1 to 10 µM | 0.25 to 1 µM
49 | CCCC#CCOc1ccc(C(=O)NCC(C)C)cc1-c1ccc2oc(-c3ccc(F)cc3)c(C(=O)NC)c2c1 |  |  | 1 to 10 µM | 1 to 10 µM
50 | CNC(=O)c1c(-c2ccc(F)cc2)oc2ccc(-c3cc(C(=O)NCC(C)C)ccc3OCC(F)F)cc12 |  |  | 0.25 to 1 µM | < 0.25 µM
51 | CNC(=O)c1c(-c2ccc(F)cc2)oc2ccc(-c3cc(C(=O)NCC(C)C)ccc3OCc3ccnc(Br)c3)cc12 |  |  | 0.25 to 1 µM | 0.25 to 1 µM
